Measurements reported in paper PMC11111408, “Concurrent inhibition of oncogenic and wild-type RAS-GTP for cancer therapy” (Nature, 2024).

Tested on: PRISM DNA-barcoded human tumour cell lines
Assay: PRISM pooled cell viability assay;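 as to PRISM AUC: 8 threefold dilutions from 10 µM with 5 days of exposure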
Type: cell-based
Parameters: AUC (PRISM viability) / AUC (PRISM): unit not given beside the values
Details: for AUC (PRISM viability): WT; for PRISM AUC: KRAS MUT
Experimental: Cells were then lysed in TCL mRNA lysis buffer, and then PCR with reverse transcription was performed. Detection of the barcodes and univariate and multivariate analysis was then performed as previously described. Data analysis is described in the Supplementary Methods. Up-to-date code for our analysis is at the github link: https://github.com/cmap/dockerized_mts.
For every gene with non-silent mutations in at least four cell-lines, we compared the AUC values between cells with and without those mutations using a t-test. This analysis was carried out for: (i) the full dataset; (ii) excluding cell lines with non-silent KRAS mutations; and (iii) excluding cell lines that have either KRAS or NRAS non-silent mutations.

CCn1c(-c2cc(N3CCN(C4CC4)CC3)cnc2[C@H](C)OC)c2c3cc(ccc31)-c1csc(n1)C[C@H](NC(=O)[C@H]1[C@@H]3COC[C@@H]31)C(=O)N1CCC[C@H](N1)C(=O)OCC(C)(C)C2 [RMC-7977]
AUC (PRISM viability) (SCC25_UPPER_AERODIGESTIVE_TRACT): 0.3367 | AUC (PRISM viability) (SCLC21H_LUNG): 0.9496 | AUC (PRISM viability) (SEM_HAEMATOPOIETIC_AND_LYMPHOID_TISSUE): 0.8793 | AUC (PRISM viability) (SF126_CENTRAL_NERVOUS_SYSTEM): 0.7112 | AUC (PRISM viability) (SF295_CENTRAL_NERVOUS_SYSTEM): 0.7908 | AUC (PRISM viability) (SF539_CENTRAL_NERVOUS_SYSTEM): 0.7182 | AUC (PRISM viability) (SH4_SKIN): 0.8584 | PRISM AUC (SH10TC_STOMACH): 0.4138 | PRISM AUC (SHP77_LUNG): 0.4654 | AUC (PRISM viability) (SIMA_AUTONOMIC_GANGLIA): 0.5854 | AUC (PRISM viability) (SKES1_BONE): 0.8807 | AUC (PRISM viability) (SKHEP1_LIVER): 0.7844 | AUC (PRISM viability) (SKLMS1_SOFT_TISSUE): 0.3954 | PRISM AUC (SKLU1_LUNG): 0.1796 | AUC (PRISM viability) (SKMEL3_SKIN): 1 | AUC (PRISM viability) (SKMEL5_SKIN): 0.8492 | AUC (PRISM viability) (SKMEL24_SKIN): 0.8551 | AUC (PRISM viability) (SKMEL28_SKIN): 0.8799 | AUC (PRISM viability) (SKMEL30_SKIN): 0.2141 | AUC (PRISM viability) (SKMES1_LUNG): 0.4907 | AUC (PRISM viability) (SKNAS_AUTONOMIC_GANGLIA): 0.2639 | AUC (PRISM viability) (SKNBE2_AUTONOMIC_GANGLIA): 0.4969 | AUC (PRISM viability) (SKNDZ_AUTONOMIC_GANGLIA): 0.7338 | AUC (PRISM viability) (SKNMC_BONE): 0.8913 | AUC (PRISM viability) (SKNO1_HAEMATOPOIETIC_AND_LYMPHOID_TISSUE): 0.4958 | AUC (PRISM viability) (SKOV3_OVARY): 0.8555 | AUC (PRISM viability) (SKUT1_SOFT_TISSUE): 0.8493 | AUC (PRISM viability) (SNB75_CENTRAL_NERVOUS_SYSTEM): 0.7551 | PRISM AUC (SNGM_ENDOMETRIUM): 0.5073 | PRISM AUC (SNU1_STOMACH): 0.47 | AUC (PRISM viability) (SNU46_UPPER_AERODIGESTIVE_TRACT): 0.6229 | PRISM AUC (SNU61_LARGE_INTESTINE): 0.1577 | AUC (PRISM viability) (SNU182_LIVER): 1 | AUC (PRISM viability) (SNU201_CENTRAL_NERVOUS_SYSTEM): 0.8111 | PRISM AUC (SNU213_PANCREAS): 0.2216 | AUC (PRISM viability) (SNU216_STOMACH): 0.4345 | AUC (PRISM viability) (SNU245_BILIARY_TRACT): 0.5897 | AUC (PRISM viability) (SNU308_BILIARY_TRACT): 0.4973 | AUC (PRISM viability) (SNU398_LIVER): 0.9232 | PRISM AUC (SNU407_LARGE_INTESTINE): 0.42 | PRISM AUC (SNU410_PANCREAS): 0.5771 | AUC (PRISM viability) (SNU423_LIVER): 0.6851 | AUC (PRISM viability) (SNU449_LIVER): 0.7416 | AUC (PRISM viability) (SNU466_CENTRAL_NERVOUS_SYSTEM): 0.3575 | AUC (PRISM viability) (SNU489_CENTRAL_NERVOUS_SYSTEM): 0.8437 | PRISM AUC (SNU601_STOMACH): 0.2276 | AUC (PRISM viability) (SNU685_ENDOMETRIUM): 0.8482 | AUC (PRISM viability) (SNU719_STOMACH): 0.2772 | AUC (PRISM viability) (SNU761_LIVER): 0.9921 | AUC (PRISM viability) (SNU840_OVARY): 0.3829 | PRISM AUC (SNU869_BILIARY_TRACT): 0.3809 | AUC (PRISM viability) (SNU878_LIVER): 0.7757 | AUC (PRISM viability) (SNU886_LIVER): 0.4222 | AUC (PRISM viability) (SNU899_UPPER_AERODIGESTIVE_TRACT): 0.2281 | AUC (PRISM viability) (SNU1076_UPPER_AERODIGESTIVE_TRACT): 0.2341 | AUC (PRISM viability) (SNU1077_ENDOMETRIUM): 0.9228 | AUC (PRISM viability) (SNU1079_BILIARY_TRACT): 0.7613 | AUC (PRISM viability) (SNU1105_CENTRAL_NERVOUS_SYSTEM): 0.4704 | AUC (PRISM viability) (SNU1196_BILIARY_TRACT): 0.9637 | AUC (PRISM viability) (SNU1214_UPPER_AERODIGESTIVE_TRACT): 0.179 | PRISM AUC (SNUC2A_LARGE_INTESTINE): 0.7905 | AUC (PRISM viability) (SNUC4_LARGE_INTESTINE): 0.612 | AUC (PRISM viability) (SQ1_LUNG): 0.3633 | AUC (PRISM viability) (SR786_HAEMATOPOIETIC_AND_LYMPHOID_TISSUE): 0.6127 | PRISM AUC (SUIT2_PANCREAS): 0.4229 | PRISM AUC (SW480_LARGE_INTESTINE): 0.2548 | AUC (PRISM viability) (SW579_THYROID): 0.4828 | PRISM AUC (SW620_LARGE_INTESTINE): 0.1434 | AUC (PRISM viability) (SW780_URINARY_TRACT): 0.559 | PRISM AUC (SW900_LUNG): 0.3401 | AUC (PRISM viability) (SW1088_CENTRAL_NERVOUS_SYSTEM): 0.6279 | AUC (PRISM viability) (SW1271_LUNG): 0.5768 | AUC (PRISM viability) (SW1353_BONE): 0.841 | AUC (PRISM viability) (SW1710_URINARY_TRACT): 0.7469 | AUC (PRISM viability) (SW1783_CENTRAL_NERVOUS_SYSTEM): 0.7461 | PRISM AUC (SW1990_PANCREAS): 0.4703 | PRISM AUC (T3M10_LUNG): 0.7347 | AUC (PRISM viability) (T24_URINARY_TRACT): 0.4656 | AUC (PRISM viability) (T47D_BREAST): 0.8281 | PRISM AUC (T84_LARGE_INTESTINE): 0.5086 | AUC (PRISM viability) (T98G_CENTRAL_NERVOUS_SYSTEM): 0.6265 | AUC (PRISM viability) (TALL1_HAEMATOPOIETIC_AND_LYMPHOID_TISSUE): 0.6203 | AUC (PRISM viability) (TC32_BONE): 0.7163 | AUC (PRISM viability) (TC71_BONE): 0.7602 | PRISM AUC (TCCPAN2_PANCREAS): 0.4522 | AUC (PRISM viability) (TCCSUP_URINARY_TRACT): 0.7623 | AUC (PRISM viability) (TE1_OESOPHAGUS): 0.7271 | AUC (PRISM viability) (TE5_OESOPHAGUS): 0.4124 | AUC (PRISM viability) (TE6_OESOPHAGUS): 0.4273 | AUC (PRISM viability) (TE8_OESOPHAGUS): 0.499 | AUC (PRISM viability) (TE9_OESOPHAGUS): 0.6448 | AUC (PRISM viability) (TE10_OESOPHAGUS): 0.472 | AUC (PRISM viability) (TE11_OESOPHAGUS): 0.5416 | AUC (PRISM viability) (TE14_OESOPHAGUS): 0.4491 | AUC (PRISM viability) (TE15_OESOPHAGUS): 0.2922 | AUC (PRISM viability) (TE617T_SOFT_TISSUE): 0.2711 | AUC (PRISM viability) (TF1_HAEMATOPOIETIC_AND_LYMPHOID_TISSUE): 0.2378 | AUC (PRISM viability) (THP1_HAEMATOPOIETIC_AND_LYMPHOID_TISSUE): 0.3541 | AUC (PRISM viability) (TM31_CENTRAL_NERVOUS_SYSTEM): 0.8811 | PRISM AUC (TOV21G_OVARY): 0.5751 | AUC (PRISM viability) (TOV112D_OVARY): 0.6714 | AUC (PRISM viability) (TT2609C02_THYROID): 0.2965 | AUC (PRISM viability) (TT_OESOPHAGUS): 0.5096 | AUC (PRISM viability) (TT_THYROID): 1 | AUC (PRISM viability) (TUHR4TKB_KIDNEY): 1 | AUC (PRISM viability) (TYKNU_OVARY): 0.2088 | AUC (PRISM viability) (U2OS_BONE): 0.5581 | AUC (PRISM viability) (U87MG_CENTRAL_NERVOUS_SYSTEM): 0.5899 | AUC (PRISM viability) (U118MG_CENTRAL_NERVOUS_SYSTEM): 0.8323 | AUC (PRISM viability) (U178_CENTRAL_NERVOUS_SYSTEM): 0.6826 | AUC (PRISM viability) (U251MG_CENTRAL_NERVOUS_SYSTEM): 0.531 | AUC (PRISM viability) (U343_CENTRAL_NERVOUS_SYSTEM): 0.5615 | AUC (PRISM viability) (U937_HAEMATOPOIETIC_AND_LYMPHOID_TISSUE): 0.5098 | AUC (PRISM viability) (UACC62_SKIN): 0.8484 | AUC (PRISM viability) (UACC257_SKIN): 0.9461 | AUC (PRISM viability) (UMUC1_URINARY_TRACT): 0.3417 | AUC (PRISM viability) (UO31_KIDNEY): 0.7674 | AUC (PRISM viability) (VMCUB1_URINARY_TRACT): 0.3401 | AUC (PRISM viability) (VMRCRCW_KIDNEY): 0.6728 | AUC (PRISM viability) (VMRCRCZ_KIDNEY): 0.8522 | AUC (PRISM viability) (WM88_SKIN): 0.8971 | AUC (PRISM viability) (WM793_SKIN): 0.8157 | AUC (PRISM viability) (WM983B_SKIN): 0.8254 | AUC (PRISM viability) (WM1799_SKIN): 0.8407 | AUC (PRISM viability) (WM2664_SKIN): 1 | AUC (PRISM viability) (WSUDLCL2_HAEMATOPOIETIC_AND_LYMPHOID_TISSUE): 0.6176 | PRISM AUC (YAPC_PANCREAS): 0.2462 | PRISM AUC (YD8_UPPER_AERODIGESTIVE_TRACT): 0.7835 | AUC (PRISM viability) (YD10B_UPPER_AERODIGESTIVE_TRACT): 0.2966 | AUC (PRISM viability) (YD15_SALIVARY_GLAND): 0.5241 | AUC (PRISM viability) (YD38_UPPER_AERODIGESTIVE_TRACT): 0.2157 | AUC (PRISM viability) (YH13_CENTRAL_NERVOUS_SYSTEM): 0.7662 | AUC (PRISM viability) (YKG1_CENTRAL_NERVOUS_SYSTEM): 0.6011 | AUC (PRISM viability) (ZR751_BREAST): 0.8548
